In US7759373B2, “Large conductance calcium-activated K channel opener” (Mitsubishi Tanabe Pharma Corporation, priority 2001, dated 2010):

The compounds below were run on rhythmic bladder contractions induced by substance P (assay: Inhibitory effect on the rhythmic bladder contractions induced by substance P in anesthetized rats). Settings: time during which frequency of rhythmic contraction was completely inhibited, 0.25 mg/kg of the compound, substance P infusion.
Assay type: in vivo, rat
Procedure: Inhibitory effect on the rhythmic bladder contractions induced by substance P in anesthetized rats
For the experiments, Sprague-Dawley female rats (9 to 12 weeks old) weighing between 200 to 300 g were used. After urethane anesthetization (subcutaneously administered with a dose of 1.2 g/kg), cannulae were placed in both right and left femoral veins. One intravenous catheter was used for administration of compounds, and the other was for the substance P (0.33 μg/kg/min) infusion. We also cannulated into ureter to pass urine. Polyethylene catheters were inserted into carotid artery for continuous monitoring of arterial blood pressure and heart rate. For continuous infusion, transurethral bladder catheter was inserted into the bladder through the urethra and tied in place by a ligature around the urethral orifice. One end of the catheter was attached to a pressure transducer in order to measure intravesical pressure. The other end of the catheter was used for infusion of saline into the bladder. After stabilization of blood pressure and heart rate and after the bladder was emptied, cystometry was performed by filling the bladder slowly with about 0.6 ml of saline. After about 10 minutes, intravenous infusion of substance P (0.33 μg/kg/min) was started for stabilization of the micturition reflex. Compounds were administered after stable rhythmic bladder contraction was obtained over 15 minutes. All compounds were dissolved or suspended in saline containing 0.5% Tween 80 for intravenous administration (0.1 ml/kg).
A 100% inhibition time (minute) of the selected compounds of the present invention is shown in the following Table 65 with a rank of A, B or C. These ranges are as mentioned below. A≧20>B≧10>C (minute)
For “2-(4-fluorophenyl)-5-(2-thienyl)oxazole-4-yl propionic acid sodium salt [Preparation Example 338]”, the “100% inhibition time range” value was “C (A≧20>B≧10>C (minute))”. `O=C(O)Cc1nc(-c2ccc(F)cc2)oc1-c1ccccc1` [Preparation Example 153] was tested, and the “100% inhibition time range” value was “B (A≧20>B≧10>C (minute))”. With `Cc1ccc(-c2nc(CC(=O)O)c(-c3cccs3)o2)cc1` [Preparation Example 156] the “100% inhibition time range” value was “B (A≧20>B≧10>C (minute))”. With `COc1ccc(-c2oc(-c3ccc(F)cc3)nc2CC(=O)O)cc1OC` [Preparation Example 160] the “100% inhibition time range” value was “C (A≧20>B≧10>C (minute))”. In the case of `O=C(O)Cc1nc(-c2ccc(F)cc2)oc1-c1ccccc1F` [Preparation Example 162], the “100% inhibition time range” value is reported as “C (A≧20>B≧10>C (minute))”. For `Cc1csc(-c2oc(-c3ccc(F)cc3)nc2CC(=O)O)c1` [Preparation Example 164], the “100% inhibition time range” value was “B (A≧20>B≧10>C (minute))”. `O=C(O)Cc1nc(-c2ccc(F)cc2)oc1-c1ccc(F)c(F)c1` [Preparation Example 166] was tested, and the “100% inhibition time range” value was “B (A≧20>B≧10>C (minute))”. For `OCc1nc(-c2ccc(Cl)cc2)[nH]c1-c1ccccc1` [Preparation Example 176], the “100% inhibition time range” value was “C (A≧20>B≧10>C (minute))”. In the case of `Cc1ccc(-c2nc(CC(=O)O)c(-c3ccsc3)o2)cc1` [Preparation Example 198], the “100% inhibition time range” value is reported as “C (A≧20>B≧10>C (minute))”. With `O=C(O)Cc1nc(-c2ccc(Cl)cc2)oc1-c1ccco1` [Preparation Example 201] the “100% inhibition time range” value was “C (A≧20>B≧10>C (minute))”. `Cc1cc(-c2oc(-c3ccc(F)cc3)nc2CC(=O)O)sc1CO` [Preparation Example 233] was tested, and the “100% inhibition time range” value was “C (A≧20>B≧10>C (minute))”. `CC(O)c1ccc(-c2oc(-c3ccc(F)cc3)nc2CC(=O)O)s1` (stereo not shown) [Preparation Example 234] was tested, and the “100% inhibition time range” value was “C (A≧20>B≧10>C (minute))”. In the case of `O=C(O)Cc1nc(-c2ccc(F)cc2)oc1-c1cccc(F)c1` [Preparation Example 236], the “100% inhibition time range” value is reported as “C (A≧20>B≧10>C (minute))”. `O=C(O)Cc1nc(-c2ccc(F)cc2)oc1-c1ccccc1O` [Preparation Example 237] was tested, and the “100% inhibition time range” value was “C (A≧20>B≧10>C (minute))”. `CS(=O)(=O)Nc1ccccc1-c1oc(-c2ccc(F)cc2)nc1CC(=O)O` [Preparation Example 238] was tested, and the “100% inhibition time range” value was “C (A≧20>B≧10>C (minute))”. For `O=C(O)Cc1nc(-c2ccc(F)cc2)oc1-c1ccc2ncccc2c1` [Preparation Example 239], the “100% inhibition time range” value was “C (A≧20>B≧10>C (minute))”. `O=C(O)Cc1nc(-c2ccc(F)cc2)oc1-c1cccc(Cl)c1` [Preparation Example 241] was tested, and the “100% inhibition time range” value was “C (A≧20>B≧10>C (minute))”. For `O=C(O)Cc1nc(-c2ccc(F)cc2)oc1-c1cc(Cl)ccc1O` [Preparation Example 242], the “100% inhibition time range” value was “C (A≧20>B≧10>C (minute))”. In the case of `COc1ccc(-c2oc(-c3ccc(F)cc3)nc2CC(=O)O)cc1F` [Preparation Example 250], the “100% inhibition time range” value is reported as “B (A≧20>B≧10>C (minute))”. `CCOc1c(F)cc(-c2oc(-c3ccc(F)cc3)nc2CC(=O)O)cc1OC` [Preparation Example 251] was tested, and the “100% inhibition time range” value was “C (A≧20>B≧10>C (minute))”. For `O=C(O)Cc1nc(-c2ccc(F)cc2)oc1-c1cc2ccccc2o1` [Preparation Example 254], the “100% inhibition time range” value was “C (A≧20>B≧10>C (minute))”. For `O=C(O)Cc1nc(-c2ccc(F)cc2)oc1-c1cccc(O)c1` [Preparation Example 258], the “100% inhibition time range” value was “C (A≧20>B≧10>C (minute))”. `CN(C)c1ccc(-c2nc(CC(=O)O)c(-c3cccs3)o2)cn1` [Preparation Example 259] was tested, and the “100% inhibition time range” value was “B (A≧20>B≧10>C (minute))”. With `CN(C)c1ccc(-c2nc(CC(=O)O)c(-c3ccc(Cl)s3)o2)cn1` [Preparation Example 260] the “100% inhibition time range” value was “A (A≧20>B≧10>C (minute))”. With `COc1cccc(-c2nc(CC(=O)O)c(-c3cccs3)o2)c1` [Preparation Example 263] the “100% inhibition time range” value was “C (A≧20>B≧10>C (minute))”. For `O=C(O)Cc1nc(-c2ccc(F)cc2)oc1-c1ccco1` [Preparation Example 270], the “100% inhibition time range” value was “B (A≧20>B≧10>C (minute))”. With `O=C(O)Cc1nc(-c2cscn2)oc1-c1ccc(Cl)s1` [Preparation Example 274] the “100% inhibition time range” value was “B (A≧20>B≧10>C (minute))”. `O=C(O)Cc1nc(-c2cc3ccccc3cn2)oc1-c1cccs1` [Preparation Example 276] was tested, and the “100% inhibition time range” value was “C (A≧20>B≧10>C (minute))”. For `COc1cc(-c2nc(CC(=O)O)c(-c3ccc(Cl)s3)o2)ccc1O` [Preparation Example 289], the “100% inhibition time range” value was “B (A≧20>B≧10>C (minute))”. For `COc1ccc(-c2nc(CC(=O)O)c(-c3ccc(Cl)s3)o2)cc1O` [Preparation Example 290], the “100% inhibition time range” value was “B (A≧20>B≧10>C (minute))”. With `CC(C)c1ccc(-c2nc(CC(=O)O)c(-c3cccs3)o2)cc1` [Preparation Example 291] the “100% inhibition time range” value was “C (A≧20>B≧10>C (minute))”. In the case of `CC(C)COc1cc(-c2oc(-c3ccc(F)cc3)nc2CC(=O)O)ccc1O` [Preparation Example 292], the “100% inhibition time range” value is reported as “C (A≧20>B≧10>C (minute))”. For `COc1cc(-c2oc(-c3ccc(F)cc3)nc2CC(=O)O)ccc1O` [Preparation Example 293], the “100% inhibition time range” value was “C (A≧20>B≧10>C (minute))”. `CCOC(=O)Cc1nc(-c2ccc(F)cc2)oc1-c1ccccc1` [Preparation Example 296, ethyl 2-(4-fluoro-phenyl)-5-phenyloxazol-4-yl acetate] was tested, and the “100% inhibition time range” value was “C (A≧20>B≧10>C (minute))”. In the case of `CCOC(=O)Cc1nc(-c2ccc(N(C)C)nc2)oc1-c1cccs1` [Preparation Example 331], the “100% inhibition time range” value is reported as “A (A≧20>B≧10>C (minute))”. For `N#CCCc1nc(-c2ccc(F)cc2)oc1-c1cccs1` [Preparation Example 337, 4-(2-cyanoethyl)-2-(4-fluorophenyl)-5-(2-thienyl)oxazole], the “100% inhibition time range” value was “C (A≧20>B≧10>C (minute))”. With `CS(=O)(=O)Nc1nc(-c2ccc(F)cc2)oc1-c1ccc(Cl)c(F)c1.[Na]` [Preparation Example 348, 5-(4-chloro-3-fluorophenyl)-2-(4-fluorophenyl)oxazol-4-yl methanesulfonamide sodium salt] the “100% inhibition time range” value was “C (A≧20>B≧10>C (minute))”. In the case of `O=C(O)Cc1[nH]c(-c2cc3ccccc3s2)nc1-c1ccc(Cl)s1` [Preparation Example 351], the “100% inhibition time range” value is reported as “C (A≧20>B≧10>C (minute))”. `COc1ccc(-c2nc(CC(=O)O)c(-c3ccc(Cl)s3)o2)cn1` [Preparation Example 368] was tested, and the “100% inhibition time range” value was “B (A≧20>B≧10>C (minute))”. In the case of `COc1ccc(-c2nc(CC(=O)O)c(-c3ccsc3)o2)cn1` [Preparation Example 369], the “100% inhibition time range” value is reported as “B (A≧20>B≧10>C (minute))”. `CS(=O)(=O)NC(=O)Cc1nc(-c2ccc(F)cc2)oc1-c1ccsc1.[Na]` [Preparation Example 370, N-[2-(4-fluorophenyl)-5-(3-thienyl)oxazol-4-ylacetyl]methanesulfonamide sodium salt] was tested, and the “100% inhibition time range” value was “C (A≧20>B≧10>C (minute))”. In the case of `O=C(Cc1nc(-c2ccc(F)cc2)oc1-c1ccsc1)NS(=O)(=O)c1cccnc1` [Preparation Example 371], the “100% inhibition time range” value is reported as “C (A≧20>B≧10>C (minute))”. `O=C(Cc1nc(-c2ccc(F)cc2)oc1-c1ccsc1)NCc1ccccn1` [Preparation Example 375] was tested, and the “100% inhibition time range” value was “C (A≧20>B≧10>C (minute))”. In the case of `O=C(Cc1nc(-c2ccc(F)cc2)oc1-c1ccsc1)Nc1cccnc1` [Preparation Example 376], the “100% inhibition time range” value is reported as “C (A≧20>B≧10>C (minute))”. In the case of `CS(=O)(=O)Nc1nc(-c2ccc(F)cc2)oc1-c1ccsc1.[Na]` [Preparation Example 380, N-[2-(4-fluorophenyl)-5-(3-thienyl)oxazol-4-yl]methanesulfonamide sodium salt], the “100% inhibition time range” value is reported as “C (A≧20>B≧10>C (minute))”. `O=C(O)Cc1nc(-c2ccc(C(F)(F)F)cc2)oc1-c1cccs1` [Preparation Example 430] was tested, and the “100% inhibition time range” value was “B (A≧20>B≧10>C (minute))”. For `Cc1ccccc1-c1nc(CC(=O)O)c(-c2cccs2)o1` [Preparation Example 433], the “100% inhibition time range” value was “C (A≧20>B≧10>C (minute))”. `O=C(O)Cc1nc(-c2ccc(CO)cc2)oc1-c1ccc(Cl)s1` [Preparation Example 436] was tested, and the “100% inhibition time range” value was “C (A≧20>B≧10>C (minute))”. For `O=C(O)Cc1nc(-c2ccc3ccccc3n2)oc1-c1ccsc1` [Preparation Example 439], the “100% inhibition time range” value was “C (A≧20>B≧10>C (minute))”. `CSc1ccc(-c2nc(CC(=O)O)c(-c3ccsc3)o2)cc1` [Preparation Example 440] was tested, and the “100% inhibition time range” value was “C (A≧20>B≧10>C (minute))”. With `O=C(O)Cc1nc(-c2ccc3ncccc3c2)oc1-c1ccsc1` [Preparation Example 442] the “100% inhibition time range” value was “C (A≧20>B≧10>C (minute))”. `O=C(O)Cc1nc(-c2ccc3c(c2)CCCO3)oc1-c1ccsc1` [Preparation Example 443] was tested, and the “100% inhibition time range” value was “C (A≧20>B≧10>C (minute))”. For `O=C(O)Cc1nc(-c2cc3ccccc3s2)oc1-c1ccc(Cl)c(F)c1` [Preparation Example 447], the “100% inhibition time range” value was “B (A≧20>B≧10>C (minute))”. For `CSCc1ccc(-c2nc(CC(=O)O)c(-c3ccc(Cl)s3)o2)cc1` [Preparation Example 448], the “100% inhibition time range” value was “C (A≧20>B≧10>C (minute))”. `CCSc1ccc(-c2nc(CC(=O)O)c(-c3ccc(Cl)s3)o2)cc1` [Preparation Example 449] was tested, and the “100% inhibition time range” value was “B (A≧20>B≧10>C (minute))”.
